For one test, the target named is FKBP12 (Homo sapiens, UniProt P62942). Briefly: Spectral shift target engagement assay, binary binding to FKBP12. To be noted: 40 nM FKBP12-NTA. From the text:
(§1) Our method of choice is the spectral shift method, which monitors binding events on the target isothermally and in equilibrium via an environment-sensitive near-infrared fluorophore. In the case of target engagement, either the proximity of the ligand towards the dye or structural changes occurring in the target as a result of binding lead to a change in the chemical environment of the fluorophore. Those changes affect the physiochemical properties of the reporter fluorophore and translate into either blue or red shifts (or peak broadening) of emission peaks upon ligand binding, which can be sensitively monitored by simultaneously recording the fluorescence at two wavelengths (i.e., at 650 nm and 670 nm). Calculating the ratio between the two fluorescence channels then allows to monitor subtle emission shifts that occur as a result of target engagement. Affinity measurements can then be performed by recording the spectral shift as a function of ligand concentration.
Binding studies through FKBP12: To monitor the binding of R,--SLF-11 by the stronger binding FKBP12 in the absence and in the presence of 10 μM MAPRE1 via %Cbound, binary and %Cbound, ternary, respectively, the concentration of reversibly NTA-labeled FKBP12 was limited to [Ctot] = 40 nM. […] In contrast to the experimental setup in the previous two binding experiments with monitoring through the weaker binding protein MAPRE1, where the applied protein concentrations were optimally chosen, this is not the case for the binding experiment through the stronger binder FKBP12. First of all, the applied excess of T with [Ttot] = 10 μM is roughly 20000-fold off of the proposed 100 times KT,1 threshold, which would correspond to 180 mM. Only under such excess conditions of T can the equilibrium of forming TL under the constraint that all ligand L is bound to T be reached to ensure that [Ltot] approaches the “ligand” concentration [TL]. […] If KC,2 is sufficiently high, the 20 nM deviation to correct for the protein concentration could be neglected. However, the resulting calculated value for KC,2 is 0.023 nM, accounting for the cooperativity α = 10,405 and KC,1 = 234 nM as derived by the MAPRE1 experiment. This value is far below the applied protein concentration of [Ctot] = 40 nM and makes it infeasible to estimate KC,2 from the EC50 of the %Cbound, ternary curve. Consequently, the EC50 shifts, meaning the apparent cooperativity, from monitoring the binding by the stronger binding protein C are diverging from the underlying intrinsic cooperativity α. […] The deviation of calculated (254 nM/24.2 nM = 10.5) and measured apparent cooperativity (254 nM/66 nM = 3.8) can be explained by a negative cooperativity induced by the His6-NTA tag of FKBP12. Studies to lower [Ctot] and identify a better position for the spectral shift tag on FKBP12 are ongoing (Figure 6a).
(§2) His-tagged FKBP12 was labeled using the His-Tag Labeling Kit RED-tris-NTA 2nd Generation (MO-L018; NanoTemper Technologies GmbH). The affinity between NTA dye and the His-tag of FKBP12 was determined as 7 nM. MAPRE1 was labeled using the Protein Labeling Kit RED-NHS 2nd Generation (MO-L011; NanoTemper Technologies GmbH). In brief, 10 µM of MAPRE1 was incubated with a 3-fold molar excess of fluorophore for 30 min. The unreacted fluorophore was removed by performing a size exclusion purification (B-column). Collecting the protein fraction yielded 1.8 µM labeled MAPRE1, with a degree of labeling of 0.8, as determined on a Nanodrop.
A 1:2 dilution series of all compounds (starting from the 10 mM stock concentration) was prepared in pure DMSO. Each concentration was diluted 25-fold with assay buffer (20 mM HEPES, pH 7.4, 150 mM NaCl, 1 mM DTT (all from Carl Roth, Karlsruhe, Germany), and 0.01% Pluronic F-127 (Sigma Aldrich, Taufkirchen, Germany)). Next, 10 µL from each of the prepared ligand dilutions was transferred into an empty well on a Dianthus Microwell Plate (DI-P001A). […]

Test [1] has as its target T1, MAPRE1 in the presence of FKBP12 (Homo sapiens, UniProt P62942+Q15691).
T1 construct: His-tag (N)
The test is described as follows: Spectral shift target engagement assay, binding to MAPRE1 in the presence of 10 μM FKBP12 (ternary).
Description: as §1
Binding study through MAPRE1: MAPRE1 was labeled via lysines using an NHS-conjugated dye. The final concentration of MAPRE1NHS (referring to [Ttot]) was 5 nM. Compounds could be titrated up to a concentration of 200 μM (referring to [Ltot]). […] However more accuracy could only be achieved at higher ligand concentrations—ideally at full target saturation. However, this was experimentally infeasible due to assay conditions (i.e., the requirement of maintaining a certain DMSO concentration or avoiding solubility issues of the ligand). Although the determined KT,1 values of binding to MAPRE1 are only approximations, their relative ranking reflects the underlying differences in the affinity of the ligands L to MAPRE1. Performing these experiments in duplicates confirmed the high signal-to-noise ratio, i.e., there was no significant deviation between the two curves, indicating a high accuracy of the interpolated EC50 values. Due to the low [Ttot] = 5 nM, this value coincides with KT,1 (1.8 mM − 0.005 mM/2 ≈ 1.8 mM). […] Consequently, KT,2 corresponds to 173 nM and not 177.5 nM.
as §2
A 1:2 dilution series of all compounds (starting from the 10 mM stock concentration) was prepared in pure DMSO. Each concentration was diluted 25-fold with assay buffer (20 mM HEPES, pH 7.4, 150 mM NaCl, 1 mM DTT (all from Carl Roth, Karlsruhe, Germany), and 0.01% Pluronic F-127 (Sigma Aldrich, Taufkirchen, Germany)). Next, 10 µL from each of the prepared ligand dilutions was transferred into an empty well on a Dianthus Microwell Plate (DI-P001A). Another 10 µL of 2-fold concentrated labeled protein (either in the absence or the presence of 20 µM counter protein, both in assay buffer then yielded the final assay concentrations. Interaction measurements were prepared in duplicates for each condition. For binary interactions of compounds with MAPRE1, a final target concentration of 5 nM and a highest ligand concentration of 50 µM was prepared. For ternary interactions of compounds and MAPRE1 in the presence of 10 µM unlabeled FKBP12, the highest ligand concentration was increased to 200 µM, the highest concentration achievable while maintaining a constant 2% DMSO concentration. For all interactions measured via FKBP12, the target was prepared at a final concentration of 40 nM, supplemented with 5 nM NTA fluorophore. […]

Each structure is given as a SMILES string. Several values for one entry are separate records, joined by “and”; a condition that tells them apart may be missing. Equal entries are not always repeated.

T1 sequence (Q15691 whole entry): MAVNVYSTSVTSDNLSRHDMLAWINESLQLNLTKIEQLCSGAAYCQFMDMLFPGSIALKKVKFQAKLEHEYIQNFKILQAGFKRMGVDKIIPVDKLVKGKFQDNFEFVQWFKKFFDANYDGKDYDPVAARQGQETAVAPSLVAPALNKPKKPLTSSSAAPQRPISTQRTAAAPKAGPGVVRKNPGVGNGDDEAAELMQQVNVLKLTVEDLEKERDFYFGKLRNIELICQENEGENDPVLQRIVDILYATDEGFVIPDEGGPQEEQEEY
T1 sequence (P62942 whole entry): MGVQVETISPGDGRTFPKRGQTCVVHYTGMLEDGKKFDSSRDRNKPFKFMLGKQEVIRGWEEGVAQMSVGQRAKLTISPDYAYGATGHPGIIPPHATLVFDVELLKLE
Chain of FKBP12 (P62942 whole entry, species assumed): as the sequence (P62942 whole entry) above

In the case of `C=C1CCN2C(=O)COc3cccc(c3)C(CCc3ccc(OC)c(OC)c3)OC(=O)C3CCCCN3C(=O)C(=O)C(C)(C)COC(=O)C(CN)NC(=O)C2C1` (stereo not shown) [R,S-SLF-7], the EC50 (usually the concentration needed to bring the measured effect to its halfway point) at FKBP12 (no MAPRE1, read-out: EC50 of the %Cbound, binary curve) worked out at 186 nM; in test [1] (5 nM MAPRE1-NHS, 10 μM FKBP12, read-out: EC50 of the %Tbound, ternary curve) it was 1990 nM. For the same molecule, the Kd at FKBP12 (KC,1 = EC50 − [Ctot]/2) came to 166 nM; in test [1] (ternary Kd, model-based ([CL] at [Ltot] = EC50), read-out: KT,2), 1940 nM. Moreover, the “Ratio [Ctot]/KC,1” value in test [1] ([Ctot] = 10 μM FKBP12) is recorded as 60. The “100 × (EC50 %Tbound ternary − 0.5 [Ttot] − KT,2)/KT,2” value in test [1] (difference between EC50 of the %Tbound, ternary curve and KT,2, [Ttot] = 5 nM) is 2% and 2.1%. Besides, in test [1] (from KC,1, KT,1 and EC50 of the %Tbound, ternary curve with the mathematical model, [Ctot] = 10,000 nM, [Ttot] = 5 nM), the “Intrinsic cooperativity α” value is 237.

The values above are taken from PMC11989212, “Experimental Conditions to Retrieve Intrinsic Cooperativity α Directly from Single Binding Assay Data Exemplified by the Ternary Complex Formation of FKBP12, MAPRE1 and Macrocyclic Molecular Glues” (International Journal of Molecular Sciences, 2025).
